The record followed here is ChEMBL document CHEMBL1156588, “Structure-activity relationships of chiral selective norepinephrine reuptake inhibitors (sNRI) with increased oxidative stability” (Bioorg Med Chem Lett, 2008).

The first series in a line: in vitro. The conditions noted are these: human, liver microsomes. For orientation: Liver microsomes are vesicles of endoplasmic reticulum, rich in cytochrome P450 enzymes.
What is called CLint scaled is a measure of how fast metabolising enzymes remove a compound, apart from limits set by blood flow. Compound `CNC[C@@H]1OCc2ccccc2[C@@H]1Oc1cccc(F)c1C` gave a CLint scaled at 1 h, 1 µM of 21 mL/min/kg.

On to `CNC[C@@H]1OCc2ccccc2[C@@H]1Oc1ccccc1Cl`, for which the CLint scaled at 1 h, 1 µM was found to be 8 mL/min/kg.

The compound `CNC[C@@H]1COc2ccccc2[C@@H]1Oc1ccccc1Cl` registered a CLint scaled at 1 h, 1 µM of 9 mL/min/kg.

For `CNC[C@@H]1OCc2ccccc2[C@@H]1Oc1c(F)cccc1C(F)(F)F`, the CLint scaled at 1 h, 1 µM was not above 3 mL/min/kg.

Regarding `CNC[C@@H]1OCc2ccccc2[C@@H]1Oc1c(C)cccc1F`, the CLint scaled at 1 h, 1 µM was not above 3 mL/min/kg.

With `CNC[C@@H]1OCc2ccccc2[C@@H]1Oc1ccc(O)cc1C`, the CLint scaled at 1 h, 1 µM turned out to be 4 mL/min/kg.

As for `CCc1ccccc1O[C@H]1c2ccccc2OC[C@H]1CNC`, the CLint scaled at 1 h, 1 µM is not above 3 mL/min/kg.

`CNC[C@@H]1OCc2ccccc2[C@@H]1Oc1ccccc1C(F)(F)F` showed an intrinsic clearance (CLint scaled) at 1 h, 1 µM of 10 mL/min/kg.

Take `CNCC[C@@H](Oc1ccccc1C)c1ccccc1` [ATOMOXETINE]: the CLint scaled at 1 h, 1 µM amounted to 50 mL/min/kg. This CLint scaled at 1 h, 1 µM is about 5-fold higher than that of the compound before.

A short description of another series: Terminal half life in human. The class given is ADME, organism-based. Particulars: in vivo.
For orientation: half-life means the time in which the quantity being followed falls by half. Consider `CNCC[C@@H](Oc1ccccc1C)c1ccccc1` [ATOMOXETINE], for which the half-life was 3 h.
